Reference: ChEMBL document CHEMBL5653631, “A Potent and Selective ULK1 Inhibitor Suppresses Autophagy and Sensitizes Cancer Cells to Nutrient Stress” (iScience, 2018)
Each block holds one compound with its values, some of them ahead of it.

Legend:
[1] = molecular target: Cyclin-dependent kinase 3 (Homo sapiens) (UniProt Q00526); assay: Inhibition of human recombinant CDK3 at 500 nM in presence of ATP by radiometric assay relative to control
[2] = molecular target: T1, Ephrin type-B receptor 4 (Homo sapiens) (UniProt P54760); assay: Inhibition of human recombinant EphB4 at 500 nM in presence of ATP by radiometric assay relative to control
T1 sequence (whole entry): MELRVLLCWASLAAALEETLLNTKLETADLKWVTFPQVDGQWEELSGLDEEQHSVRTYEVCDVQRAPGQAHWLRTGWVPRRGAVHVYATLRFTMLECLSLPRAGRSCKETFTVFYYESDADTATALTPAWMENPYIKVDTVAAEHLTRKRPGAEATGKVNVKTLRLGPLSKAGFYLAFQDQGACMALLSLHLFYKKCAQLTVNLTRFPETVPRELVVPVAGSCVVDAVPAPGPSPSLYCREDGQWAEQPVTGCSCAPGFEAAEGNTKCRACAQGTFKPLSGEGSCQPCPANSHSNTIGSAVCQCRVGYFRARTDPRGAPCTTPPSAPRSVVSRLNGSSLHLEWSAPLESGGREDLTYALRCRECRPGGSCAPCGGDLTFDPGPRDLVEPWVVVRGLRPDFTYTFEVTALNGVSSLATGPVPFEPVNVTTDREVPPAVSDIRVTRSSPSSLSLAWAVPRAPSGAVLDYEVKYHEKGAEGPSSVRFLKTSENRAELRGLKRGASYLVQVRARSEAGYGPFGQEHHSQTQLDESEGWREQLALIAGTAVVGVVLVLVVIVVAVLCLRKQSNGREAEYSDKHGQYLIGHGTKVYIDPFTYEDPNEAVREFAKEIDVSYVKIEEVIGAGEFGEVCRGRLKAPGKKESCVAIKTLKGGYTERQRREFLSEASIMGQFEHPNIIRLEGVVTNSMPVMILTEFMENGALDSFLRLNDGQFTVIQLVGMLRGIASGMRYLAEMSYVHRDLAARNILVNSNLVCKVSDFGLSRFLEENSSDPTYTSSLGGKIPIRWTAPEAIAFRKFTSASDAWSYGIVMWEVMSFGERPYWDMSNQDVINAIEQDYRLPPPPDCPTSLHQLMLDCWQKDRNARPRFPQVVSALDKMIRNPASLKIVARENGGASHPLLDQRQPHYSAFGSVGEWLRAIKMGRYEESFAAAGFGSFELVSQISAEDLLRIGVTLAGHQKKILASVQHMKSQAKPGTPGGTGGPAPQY

[3] = molecular target: T2, NUAK family SNF1-like kinase 2 (Homo sapiens) (UniProt Q9H093); assay: Inhibition of human recombinant NuaK2 at 500 nM in presence of ATP by radiometric assay relative to control
T2 sequence (whole entry): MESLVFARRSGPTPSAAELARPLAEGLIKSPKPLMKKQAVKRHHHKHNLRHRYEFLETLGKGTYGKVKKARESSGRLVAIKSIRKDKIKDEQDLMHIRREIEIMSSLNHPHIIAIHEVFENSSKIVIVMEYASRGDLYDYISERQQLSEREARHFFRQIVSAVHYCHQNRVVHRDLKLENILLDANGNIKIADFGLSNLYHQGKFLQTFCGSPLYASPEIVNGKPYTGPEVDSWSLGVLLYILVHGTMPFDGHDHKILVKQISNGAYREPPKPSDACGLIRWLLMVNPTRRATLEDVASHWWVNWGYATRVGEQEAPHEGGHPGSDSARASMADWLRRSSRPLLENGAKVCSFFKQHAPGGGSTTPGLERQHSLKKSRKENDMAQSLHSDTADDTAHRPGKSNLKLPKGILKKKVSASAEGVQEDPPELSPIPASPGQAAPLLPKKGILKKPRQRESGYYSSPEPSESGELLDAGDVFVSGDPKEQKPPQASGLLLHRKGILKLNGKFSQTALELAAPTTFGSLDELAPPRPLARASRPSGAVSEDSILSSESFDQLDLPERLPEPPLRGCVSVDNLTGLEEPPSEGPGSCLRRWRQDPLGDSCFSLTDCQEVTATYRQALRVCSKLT

[4] = molecular target: Dual specificity protein kinase CLK2 (Homo sapiens) (UniProt P49760); assay: Inhibition of human recombinant CLK2 at 500 nM related to control ULK1
[5] = molecular target: Vascular endothelial growth factor receptor 2 (Homo sapiens) (UniProt P35968); assay: Inhibition of human recombinant KDR at 500 nM related to control ULK1
[6] = molecular target: Cyclin-dependent kinase 1 (Homo sapiens) (UniProt P06493); assay: Inhibition of human recombinant CDC2 at 15 nM in presence of ATP by radiometric assay relative to control
[7] = molecular target: Proto-oncogene tyrosine-protein kinase ROS (Homo sapiens) (UniProt P08922); assay: Inhibition of human recombinant ROS at 15 nM in presence of ATP by radiometric assay relative to control
[8] = molecular target: Tyrosine-protein kinase HCK (Homo sapiens) (UniProt P08631); assay: Inhibition of human recombinant HCK at 15 nM related to control ULK1
[9] = molecular target: Cyclin-dependent kinase 4 (Homo sapiens) (UniProt P11802); assay: Inhibition of human recombinant CDK4 at 40 nM in presence of ATP by radiometric assay relative to control
[10] = molecular target: Proto-oncogene tyrosine-protein kinase receptor Ret (Homo sapiens) (UniProt P07949); assay: Inhibition of human recombinant RET at 40 nM in presence of ATP by radiometric assay relative to control
[11] = molecular target: Dual specificity protein kinase CLK3 (Homo sapiens) (UniProt P49761); assay: Inhibition of human recombinant CLK3 at 40 nM related to control ULK1
[12] = molecular target: T3, Serine/threonine-protein kinase 3 (Homo sapiens) (UniProt Q13188); assay: Inhibition of human recombinant MST2 at 40 nM related to control ULK1
T3 sequence (whole entry): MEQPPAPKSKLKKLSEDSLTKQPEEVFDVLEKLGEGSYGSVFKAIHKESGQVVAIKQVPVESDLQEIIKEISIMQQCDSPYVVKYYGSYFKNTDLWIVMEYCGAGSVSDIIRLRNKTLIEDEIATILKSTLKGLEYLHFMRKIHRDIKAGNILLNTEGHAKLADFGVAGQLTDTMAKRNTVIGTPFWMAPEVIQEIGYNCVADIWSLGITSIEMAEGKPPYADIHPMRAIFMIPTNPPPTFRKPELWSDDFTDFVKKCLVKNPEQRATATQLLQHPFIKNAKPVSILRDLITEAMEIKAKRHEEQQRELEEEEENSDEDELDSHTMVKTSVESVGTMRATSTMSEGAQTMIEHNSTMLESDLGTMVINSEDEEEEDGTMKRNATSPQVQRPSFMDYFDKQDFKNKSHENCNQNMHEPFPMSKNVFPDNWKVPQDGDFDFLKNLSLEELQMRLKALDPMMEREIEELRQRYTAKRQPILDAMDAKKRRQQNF

[13] = molecular target: Serine/threonine-protein kinase PAK 1 (Homo sapiens) (UniProt Q13153); assay: Inhibition of human recombinant PAK1 at 40 nM related to control ULK1
Sequence of Serine/threonine-protein kinase PAK 1 (Homo sapiens) (Q13153 whole entry, looked up): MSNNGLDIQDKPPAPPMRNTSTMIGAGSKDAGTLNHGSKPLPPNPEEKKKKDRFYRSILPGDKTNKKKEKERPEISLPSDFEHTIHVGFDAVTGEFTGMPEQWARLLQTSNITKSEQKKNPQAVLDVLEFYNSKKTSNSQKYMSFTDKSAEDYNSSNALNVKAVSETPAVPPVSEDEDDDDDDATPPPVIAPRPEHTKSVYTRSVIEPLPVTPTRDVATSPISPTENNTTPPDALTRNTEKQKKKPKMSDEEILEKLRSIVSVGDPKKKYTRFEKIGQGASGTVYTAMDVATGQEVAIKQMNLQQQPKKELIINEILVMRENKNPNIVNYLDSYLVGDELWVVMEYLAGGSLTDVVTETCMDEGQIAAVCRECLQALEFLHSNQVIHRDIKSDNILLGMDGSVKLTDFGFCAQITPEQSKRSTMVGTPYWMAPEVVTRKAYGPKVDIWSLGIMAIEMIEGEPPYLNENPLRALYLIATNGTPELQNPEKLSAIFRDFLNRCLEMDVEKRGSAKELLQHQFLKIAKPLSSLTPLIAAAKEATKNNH

Sequence of Proto-oncogene tyrosine-protein kinase receptor Ret (Homo sapiens) (P07949 whole entry): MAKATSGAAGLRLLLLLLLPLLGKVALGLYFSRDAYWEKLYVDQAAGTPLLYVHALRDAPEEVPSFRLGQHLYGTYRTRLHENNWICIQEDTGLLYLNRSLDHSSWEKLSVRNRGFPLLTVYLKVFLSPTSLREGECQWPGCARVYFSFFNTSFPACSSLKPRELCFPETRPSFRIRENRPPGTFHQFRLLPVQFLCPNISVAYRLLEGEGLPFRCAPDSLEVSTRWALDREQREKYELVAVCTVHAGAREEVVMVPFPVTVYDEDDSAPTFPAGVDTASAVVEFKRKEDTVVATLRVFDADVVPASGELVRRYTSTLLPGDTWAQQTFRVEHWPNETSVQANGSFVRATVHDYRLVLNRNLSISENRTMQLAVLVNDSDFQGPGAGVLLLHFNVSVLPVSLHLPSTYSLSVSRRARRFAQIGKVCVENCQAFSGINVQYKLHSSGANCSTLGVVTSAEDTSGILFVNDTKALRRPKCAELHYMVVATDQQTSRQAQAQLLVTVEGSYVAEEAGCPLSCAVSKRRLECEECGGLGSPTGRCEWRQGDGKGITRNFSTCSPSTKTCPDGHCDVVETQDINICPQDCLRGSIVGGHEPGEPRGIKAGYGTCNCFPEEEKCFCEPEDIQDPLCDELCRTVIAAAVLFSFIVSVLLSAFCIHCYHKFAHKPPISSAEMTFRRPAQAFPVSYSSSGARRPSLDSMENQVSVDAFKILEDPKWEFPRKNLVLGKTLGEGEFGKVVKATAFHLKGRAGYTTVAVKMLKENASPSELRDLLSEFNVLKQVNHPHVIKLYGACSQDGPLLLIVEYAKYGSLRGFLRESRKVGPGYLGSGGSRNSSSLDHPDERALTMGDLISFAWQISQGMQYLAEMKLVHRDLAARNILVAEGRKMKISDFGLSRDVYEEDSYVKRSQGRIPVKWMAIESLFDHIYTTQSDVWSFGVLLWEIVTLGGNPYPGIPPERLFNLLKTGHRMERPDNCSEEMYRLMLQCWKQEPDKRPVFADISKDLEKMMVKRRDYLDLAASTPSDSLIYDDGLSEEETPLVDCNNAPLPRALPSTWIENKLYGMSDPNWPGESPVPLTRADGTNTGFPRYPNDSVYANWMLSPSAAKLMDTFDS
Sequence of Cyclin-dependent kinase 3 (Homo sapiens) (Q00526 whole entry, looked up): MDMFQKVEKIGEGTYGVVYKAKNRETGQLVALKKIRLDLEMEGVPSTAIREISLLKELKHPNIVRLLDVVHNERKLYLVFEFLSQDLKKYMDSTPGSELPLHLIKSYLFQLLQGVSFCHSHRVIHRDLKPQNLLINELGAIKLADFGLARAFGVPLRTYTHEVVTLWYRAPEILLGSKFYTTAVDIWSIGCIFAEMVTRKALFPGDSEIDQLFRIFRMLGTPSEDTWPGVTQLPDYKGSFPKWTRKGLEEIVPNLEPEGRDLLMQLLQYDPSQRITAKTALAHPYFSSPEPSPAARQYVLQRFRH
Sequence of Dual specificity protein kinase CLK3 (Homo sapiens) (P49761 whole entry, looked up): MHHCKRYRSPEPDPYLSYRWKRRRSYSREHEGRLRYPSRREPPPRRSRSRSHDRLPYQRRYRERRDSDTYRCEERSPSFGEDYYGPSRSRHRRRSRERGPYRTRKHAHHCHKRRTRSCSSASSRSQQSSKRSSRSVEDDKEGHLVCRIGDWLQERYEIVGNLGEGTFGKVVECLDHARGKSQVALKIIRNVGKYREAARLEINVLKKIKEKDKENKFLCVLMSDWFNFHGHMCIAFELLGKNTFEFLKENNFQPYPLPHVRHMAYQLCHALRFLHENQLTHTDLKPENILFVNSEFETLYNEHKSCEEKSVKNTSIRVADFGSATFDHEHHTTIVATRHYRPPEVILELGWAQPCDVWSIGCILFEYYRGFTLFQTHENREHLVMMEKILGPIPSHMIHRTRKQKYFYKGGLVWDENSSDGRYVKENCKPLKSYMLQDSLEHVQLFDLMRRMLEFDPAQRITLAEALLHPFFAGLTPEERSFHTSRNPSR
Sequence of Tyrosine-protein kinase HCK (Homo sapiens) (P08631 2-526 limits assumed): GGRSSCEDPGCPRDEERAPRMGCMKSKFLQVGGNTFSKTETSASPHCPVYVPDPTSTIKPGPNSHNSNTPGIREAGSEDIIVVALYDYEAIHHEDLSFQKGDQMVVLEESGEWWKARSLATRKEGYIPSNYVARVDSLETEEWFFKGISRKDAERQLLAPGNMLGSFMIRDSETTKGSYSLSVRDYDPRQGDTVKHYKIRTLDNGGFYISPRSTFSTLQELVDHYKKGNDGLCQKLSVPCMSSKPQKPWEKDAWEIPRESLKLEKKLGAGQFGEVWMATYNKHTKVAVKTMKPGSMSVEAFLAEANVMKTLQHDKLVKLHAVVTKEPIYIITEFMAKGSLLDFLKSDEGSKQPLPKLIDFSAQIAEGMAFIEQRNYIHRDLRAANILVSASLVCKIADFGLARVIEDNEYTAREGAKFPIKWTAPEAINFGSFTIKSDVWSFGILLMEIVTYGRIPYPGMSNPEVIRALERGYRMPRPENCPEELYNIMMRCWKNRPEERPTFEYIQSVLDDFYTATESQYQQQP
Sequence of Cyclin-dependent kinase 4 (Homo sapiens) (P11802 whole entry): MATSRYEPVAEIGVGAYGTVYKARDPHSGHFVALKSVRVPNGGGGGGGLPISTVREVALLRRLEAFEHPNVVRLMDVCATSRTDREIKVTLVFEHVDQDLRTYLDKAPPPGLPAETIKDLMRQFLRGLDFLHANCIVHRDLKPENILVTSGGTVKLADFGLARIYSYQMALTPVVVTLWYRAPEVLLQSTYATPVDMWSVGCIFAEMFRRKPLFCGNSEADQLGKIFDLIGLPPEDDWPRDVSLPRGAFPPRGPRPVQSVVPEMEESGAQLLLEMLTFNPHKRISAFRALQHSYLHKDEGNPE
Sequence of Vascular endothelial growth factor receptor 2 (Homo sapiens) (P35968 whole entry): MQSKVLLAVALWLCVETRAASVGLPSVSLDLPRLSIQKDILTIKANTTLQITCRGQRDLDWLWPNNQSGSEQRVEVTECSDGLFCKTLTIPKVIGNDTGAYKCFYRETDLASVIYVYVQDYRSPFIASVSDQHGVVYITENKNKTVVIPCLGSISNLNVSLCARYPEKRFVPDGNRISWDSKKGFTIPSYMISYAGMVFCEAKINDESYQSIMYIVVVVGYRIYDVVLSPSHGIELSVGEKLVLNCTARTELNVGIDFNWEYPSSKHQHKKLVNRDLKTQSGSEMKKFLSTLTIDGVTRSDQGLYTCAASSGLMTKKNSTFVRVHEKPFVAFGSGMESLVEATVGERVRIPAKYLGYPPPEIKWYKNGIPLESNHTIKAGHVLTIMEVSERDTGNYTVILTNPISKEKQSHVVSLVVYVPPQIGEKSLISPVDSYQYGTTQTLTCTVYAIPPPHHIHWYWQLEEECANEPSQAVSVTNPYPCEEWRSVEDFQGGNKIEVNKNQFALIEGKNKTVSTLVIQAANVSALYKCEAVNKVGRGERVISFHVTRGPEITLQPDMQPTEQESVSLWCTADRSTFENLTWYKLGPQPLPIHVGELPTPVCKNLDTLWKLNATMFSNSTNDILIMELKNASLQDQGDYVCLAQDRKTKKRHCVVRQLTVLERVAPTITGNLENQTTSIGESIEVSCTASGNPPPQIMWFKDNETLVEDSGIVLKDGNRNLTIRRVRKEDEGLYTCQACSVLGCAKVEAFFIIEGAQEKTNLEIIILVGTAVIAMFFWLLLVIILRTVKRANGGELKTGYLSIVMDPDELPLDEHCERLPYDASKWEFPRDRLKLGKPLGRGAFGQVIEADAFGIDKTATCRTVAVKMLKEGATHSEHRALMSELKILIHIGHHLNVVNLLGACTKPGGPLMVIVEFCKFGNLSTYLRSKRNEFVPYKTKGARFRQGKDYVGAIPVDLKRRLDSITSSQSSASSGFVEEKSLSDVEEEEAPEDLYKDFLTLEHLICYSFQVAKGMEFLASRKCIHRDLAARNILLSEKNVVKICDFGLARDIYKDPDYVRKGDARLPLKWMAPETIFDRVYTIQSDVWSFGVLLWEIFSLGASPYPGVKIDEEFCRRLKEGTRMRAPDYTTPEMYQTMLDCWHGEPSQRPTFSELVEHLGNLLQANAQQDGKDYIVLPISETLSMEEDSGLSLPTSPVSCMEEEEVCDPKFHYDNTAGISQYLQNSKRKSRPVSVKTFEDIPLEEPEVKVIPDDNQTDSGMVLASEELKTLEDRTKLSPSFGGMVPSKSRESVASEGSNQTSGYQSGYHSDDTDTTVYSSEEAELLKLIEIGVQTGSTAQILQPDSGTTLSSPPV
Sequence of Cyclin-dependent kinase 1 (Homo sapiens) (P06493 whole entry, looked up): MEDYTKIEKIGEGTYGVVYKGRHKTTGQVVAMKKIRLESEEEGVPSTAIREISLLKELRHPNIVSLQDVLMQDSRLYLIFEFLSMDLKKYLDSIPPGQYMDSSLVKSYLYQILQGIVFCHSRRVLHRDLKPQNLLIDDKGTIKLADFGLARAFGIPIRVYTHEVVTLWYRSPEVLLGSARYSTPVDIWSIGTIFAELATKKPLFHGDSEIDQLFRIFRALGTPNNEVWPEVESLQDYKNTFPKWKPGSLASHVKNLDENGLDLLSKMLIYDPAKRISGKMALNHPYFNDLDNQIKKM

inhibition [1]: 1%
inhibition [2]: 0%
inhibition [3]: 64%
fold change (FC) [4]: 0.09
fold change (FC) [5]: 0
SMILES: CNC(=O)c1ccccc1Oc1nc(Nc2cc(OC)c(OC)c(OC)c2)ncc1Br

inhibition [6]: 24%
inhibition [7]: 0%
fold change (FC) [8]: 0.3
SMILES: CC(C)[C@H](NC(=O)c1cc(-c2cnn3cc(-c4ccc(OCCN5CCCCC5)cc4)cnc23)cs1)C(F)(F)F

inhibition [9]: 0%
inhibition [10]: 0%
fold change (FC) [11]: 0
fold change (FC) [12]: 0
fold change (FC) [13]: 0
SMILES: O=C(N[C@@H](C1CC1)C(F)(F)F)c1cc(-c2cnn3cc(-c4ccc(F)cc4)cnc23)cs1
